Assay results as given in patent US11203574B2 (BioCryst Pharmaceuticals, Inc., priority 2014, dated 2021).

molecular target: human plasma kallikrein (Homo sapiens (Human), UniProt P03952); assay: Plasma kallikrein activity assay (chromogenic substrate S2302); format: biochemical; settings: 2 nM kallikrein, 80 μM S2302, 30° C., pH 7.8; Ki by Cheng-Prusoff equation; values given as ranges; read-out: Ki
Sequence (P03952 whole entry, looked up): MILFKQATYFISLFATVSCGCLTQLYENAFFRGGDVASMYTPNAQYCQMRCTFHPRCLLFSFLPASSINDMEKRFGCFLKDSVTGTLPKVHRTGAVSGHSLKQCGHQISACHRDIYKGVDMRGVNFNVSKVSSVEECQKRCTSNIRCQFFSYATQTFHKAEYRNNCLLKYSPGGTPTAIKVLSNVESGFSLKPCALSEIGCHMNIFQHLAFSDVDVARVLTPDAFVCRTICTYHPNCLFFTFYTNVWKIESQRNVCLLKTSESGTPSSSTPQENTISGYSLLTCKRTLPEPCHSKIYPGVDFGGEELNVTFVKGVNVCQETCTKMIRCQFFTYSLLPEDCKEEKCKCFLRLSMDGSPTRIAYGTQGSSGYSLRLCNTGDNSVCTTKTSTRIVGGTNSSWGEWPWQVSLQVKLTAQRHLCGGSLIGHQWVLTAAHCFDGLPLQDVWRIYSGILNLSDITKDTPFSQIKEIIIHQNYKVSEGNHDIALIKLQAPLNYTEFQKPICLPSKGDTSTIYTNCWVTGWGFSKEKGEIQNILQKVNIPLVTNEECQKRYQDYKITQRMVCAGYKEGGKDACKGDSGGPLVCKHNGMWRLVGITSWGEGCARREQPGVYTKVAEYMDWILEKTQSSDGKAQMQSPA
Sequence (P03952 whole entry partner, looked up): as the sequence (P03952 whole entry, looked up) above
Description: Plasma Kallikrein Activity Assay.
The effect of compounds of the invention on human plasma kallikrein activity was determined using the chromogenic substrates (DiaPharma Group, Inc., West Chester, Ohio, USA). In these experiments, 2 nM kallikrein (Enzyme Research Laboratories, South Bend, Ind., USA) was incubated with 80 μM S2302 (H-D-Pro-Phe-Arg-p-nitroaniline) in the absence or presence of increasing concentrations of compounds of the invention in a final volume of 200 μL Tris-HCl buffer (200 mM NaCl; mM CaCl2; 50 mM Tris-HCl, pH 7.8).
Data were analyzed using SigmaPlot software (Systat Software, Inc., San Jose, Calif., USA) (Four Parameter Logistic Curve).

| SMILES | Ki |
| --- | --- |
| NCc1cccc(-n2nc(C(F)(F)F)cc2C(=O)Nc2cccc(C(OCC3CC3)c3ccccn3)c2)c1 (single isomer, unassigned; (-)) [43g, (−)-1-(3-(aminomethyl)phenyl)-N-(3-((cyclopropylmethoxy)(pyridin-2-yl)methyl)-phenyl)-3-(trifluoromethyl)-1H-pyrazole-5-carboxamide] | 0.1 to 50 nM |
| NCc1cccc(-n2nc(C(F)(F)F)cc2C(=O)Nc2cccc(C(O)c3ccccc3)c2F)c1 (centres unmarked) [35g, 1-(3-(aminomethyl)phenyl)-N-(2-fluoro-3-(hydroxy(phenyl)methyl)phenyl)-3-(trifluoromethyl)-1H-pyrazole-5-carboxamide] | 50 to 100 nM |
| NCc1cccc(-n2nc(C(F)(F)F)cc2C(=O)Nc2cccc(C(OCC3CC3)c3ccccn3)c2)c1 (racemic) [43f, 1-(3-(aminomethyl)phenyl)-N-(3-((cyclopropylmethoxy)(pyridin-2-yl)methyl)-phenyl)-3-(trifluoromethyl)-1H-pyrazole-5-carboxamide] | 0.1 to 50 nM |
| NCc1cccc(-n2nc(C(F)(F)F)cc2C(=O)Nc2cccc(C(CCC3CC3)N3CCCC3)c2)c1 (centres unmarked) [98b, 1-(3-(aminomethyl)phenyl)-N-(3-(3-cyclopropyl-1-(pyrrolidin-1-yl)propyl)phenyl)-3-(trifluoromethyl)-1H-pyrazole-5-carboxamide] | 0.1 to 50 nM |
| N#Cc1cccc(C(NCC2CC2)c2cccc(NC(=O)c3cc(C(F)(F)F)nn3-c3cccc(CN)c3)c2)c1 (centres unmarked) [152d, 1-(3-(aminomethyl)phenyl)-N-(3-((3-cyanophenyl)(cyclopropylmethylamino)methyl)phenyl)-3-(trifluoromethyl)-1H-pyrazole-5-carboxamide] | 0.1 to 50 nM |
| NCc1cccc(-n2nc(C(F)(F)F)cc2C(=O)Nc2cccc(C(O)(CCC3CC3)c3ccncc3)c2)c1 (centres unmarked) [92g, 1-(3-(aminomethyl)phenyl)-N-(3-(3-cyclopropyl-1-hydroxy-1-(pyridin-4-yl)propyl)phenyl)-3-(trifluoromethyl)-1H-pyrazole-5-carboxamide] | 0.1 to 50 nM |
| NCc1cccc(-n2nc(C(F)(F)F)cc2C(=O)Nc2cccc(C(NCC3CC3)c3ccc(O)cc3)c2)c1 (centres unmarked) [135c, 1-(3-(aminomethyl)phenyl)-N-(3-(((cyclopropylmethyl)amino)(4-hydroxyphenyl)methyl)phenyl)-3-(trifluoromethyl)-1H-pyrazole-5-carboxamide] | 0.1 to 50 nM |
| CC(=O)Nc1ccc(C(NCC2CC2)c2cccc(NC(=O)c3cc(C(F)(F)F)nn3-c3cccc(CN)c3)c2)cc1 (centres unmarked) [138f, N-(3-((4-acetamidophenyl)(cyclopropylmethylamino)methyl)phenyl)-1-(3-(aminomethyl)phenyl)-3-(trifluoromethyl)-1H-pyrazole-5-carboxamide] | 0.1 to 50 nM |
| COc1cccc(C(NCC2CC2)c2cccc(NC(=O)c3cc(C(F)(F)F)nn3-c3cccc(CN)c3)c2)c1 (centres unmarked) [109f, 1-(3-(Aminomethyl)phenyl)-N-(3-((cyclopropylmethylamino)(3-methoxyphenyl)methyl)phenyl)-3-(trifluoromethyl)-1H-pyrazole-5-carboxamide] | 0.1 to 50 nM |
| NCc1cccc(-n2nc(C(F)(F)F)cc2C(=O)Nc2cccc(C(NCC3CC3)c3cc(F)ccc3F)c2)c1 (centres unmarked) [197f, 1-(3-(aminomethyl)phenyl)-N-(3-(((cyclopropylmethyl)amino)(2,5-difluorophenyl)methyl)phenyl)-3-(trifluoromethyl)-1H-pyrazole-5-carboxamide] | 0.1 to 50 nM |
| NCc1cccc(-n2nc(C(F)(F)F)cc2C(=O)Nc2cccc(C(NCC3CC3)c3c4ccccc4c(Cl)c4ccccc34)c2)c1 (centres unmarked) [118f, 1-(3-(aminomethyl)phenyl)-N-(3-((10-chloroanthracen-9-yl)(cyclopropylmethylamino)methyl)phenyl)-3-(trifluoromethyl)-1H-pyrazole-5-carboxamide] | 0.1 to 50 nM |
| NCc1cccc(-n2nc(C(F)(F)F)cc2C(=O)Nc2cccc(C(NCC3CC3)c3ccncc3)c2)c1 (centres unmarked) [86g, 1-(3-(aminomethyl)phenyl)-N-(3-((cyclopropylmethylamino)(pyridin-4-yl)methyl)phenyl)-3-(trifluoromethyl)-1H-pyrazole-5-carboxamide] | 0.1 to 50 nM |
| NCc1cccc(-n2nc(C(F)(F)F)cc2C(=O)Nc2cc(C(NCC3CC3)c3nccs3)ccc2F)c1 (centres unmarked) [101e, 1-(3-(Aminomethyl)phenyl)-N-(5-((cyclopropylmethylamino)(thiazol-2-yl)methyl)-2-fluorophenyl)-3-(trifluoromethyl)-1H-pyrazole-5-carboxamide] | 0.1 to 50 nM |
| NCc1cccc(-n2nc(C(F)(F)F)cc2C(=O)Nc2cc(C(N)(CCC3CC3)c3ccc(C(N)=O)cc3)ccc2F)c1 (single isomer, unassigned; (+)) [228a, (+)-N-(5-(1-amino-1-(4-carbamoylphenyl)-3-cyclopropylpropyl)-2-fluorophenyl)-1-(3-(aminomethyl)phenyl)-3-(trifluoromethyl)-1H-pyrazole-5-carboxamide] | 0.1 to 50 nM |
| Cc1ccc(C(NCC2CC2)c2cccc(NC(=O)c3cc(C(F)(F)F)nn3-c3cccc(CN)c3)c2)c(C)c1 (centres unmarked) [201f, 1-(3-(aminomethyl)phenyl)-N-(3-(((cyclopropylmethyl)amino)(2,4-dimethylphenyl)methyl)phenyl)-3-(trifluoromethyl)-1H-pyrazole-5-carboxamide] | 0.1 to 50 nM |
| COC(CCC1CC1)(c1cccnc1)c1cccc(NC(=O)c2cc(C(F)(F)F)nn2-c2cccc(CN)c2)c1 (centres unmarked) [156c, 1-(3-(aminomethyl)phenyl)-N-(3-(3-cyclopropyl-1-methoxy-1-(pyridin-3-yl)propyl)phenyl)-3-(trifluoromethyl)-1H-pyrazole-5-carboxamide] | 0.1 to 50 nM |
| COc1ccc(C(NCC2CC2)c2cccc(NC(=O)c3cc(C(F)(F)F)nn3-c3cccc(CN)c3)c2)cc1 (centres unmarked) [105g, 1-(3-(Aminomethyl)phenyl)-N-(3-(((cyclopropylmethyl)amino)(4-methoxyphenyl)methyl)phenyl)-3-(trifluoromethyl)-1H-pyrazole-5-carboxamide] | 0.1 to 50 nM |
| NCc1cccc(-n2nc(C(F)(F)F)cc2C(=O)Nc2cc(C(CCC3CC3)n3ccc(=O)[nH]c3=O)ccc2F)c1 (centres unmarked) [263d, 1-(3-(aminomethyl)phenyl)-N-(5-(3-cyclopropyl-1-(2,4-dioxo-3,4-dihydropyrimidin-1(2H)-yl)propyl)-2-fluorophenyl)-3-(trifluoromethyl)-1H-pyrazole-5-carboxamide] | 0.1 to 50 nM |
| NCc1cccc(-n2nc(C(F)(F)F)cc2C(=O)Nc2cccc(C(CCC3CC3)N3CCCC3=O)c2)c1 (centres unmarked) [247e, 1-(3-(aminomethyl)phenyl)-N-(3-(3-cyclopropyl-1-(2-oxopyrrolidin-1-yl)propyl)phenyl)-3-(trifluoromethyl)-1H-pyrazole-5-carboxamide] | 0.1 to 50 nM |
| NCc1cccc(-n2nc(C(F)(F)F)cc2C(=O)Nc2cccc(C(NCC3CC3)c3ccccc3F)c2)c1 (centres unmarked) [117e, 1-(3-(aminomethyl)phenyl)-N-(3-((cyclopropylmethylamino)(2-fluorophenyl)methyl)phenyl)-3-(trifluoromethyl)-1H-pyrazole-5-carboxamide] | 0.1 to 50 nM |
| NCc1cccc(-n2nc(C(F)(F)F)cc2C(=O)Nc2cccc(C(NCC3CC3)c3cccc(F)c3)c2)c1 (centres unmarked) [195f, 1-(3-(aminomethyl)phenyl)-N-(3-(((cyclopropylmethyl)amino)(3-fluorophenyl)methyl)phenyl)-3-(trifluoromethyl)-1H-pyrazole-5-carboxamide] | 0.1 to 50 nM |
| Cc1ccc(C)c(C(NCC2CC2)c2cccc(NC(=O)c3cc(C(F)(F)F)nn3-c3cccc(CN)c3)c2)c1 (centres unmarked) [202f, 1-(3-(aminomethyl)phenyl)-N-(3-(((cyclopropylmethyl)amino)(2,5-dimethylphenyl)methyl)phenyl)-3-(trifluoromethyl)-1H-pyrazole-5-carboxamide] | 0.1 to 50 nM |
| NCc1cccc(-n2nc(C(F)(F)F)cc2C(=O)Nc2cccc(C(NCC3CC3)c3cccc(O)c3O)c2)c1 (centres unmarked) [150f, 1-(3-(aminomethyl)phenyl)-N-(3-((cyclopropylmethylamino)(2,3-dihydroxyphenyl)methyl)phenyl)-3-(trifluoromethyl)-1H-pyrazole-5-carboxamide] | 0.1 to 50 nM |
| NCc1cccc(-n2nc(C(F)(F)F)cc2C(=O)Nc2cccc(C(OCC3CC3)c3ccccc3)c2)c1 (centres unmarked) [18k, 1-(3-(aminomethyl)phenyl)-N-(3-((cyclopropylmethoxy)(phenyl)methyl)phenyl)-3-(trifluoromethyl)-1H-pyrazole-5-carboxamide] | 0.1 to 50 nM |
| NCc1cccc(-n2nc(C(F)(F)F)cc2C(=O)Nc2cccc(C(CCC3CC3)n3ccccc3=O)c2)c1 (centres unmarked) [247c, 1-(3-(aminomethyl)phenyl)-N-(3-(3-cyclopropyl-1-(2-oxopyridin-1(2H)-yl)propyl)phenyl)-3-(trifluoromethyl)-1H-pyrazole-5-carboxamide] | 0.1 to 50 nM |
| NCc1cccc(-n2nc(C(F)(F)F)cc2C(=O)Nc2cc(C(N)(CCC3CC3)c3ccncc3)ccc2F)c1 (single isomer, unassigned; (+)) [216d, (+)-N-(5-(1-amino-3-cyclopropyl-1-(pyridin-4-yl)propyl)-2-fluorophenyl)-1-(3-(aminomethyl)phenyl)-3-(trifluoromethyl)-1H-pyrazole-5-carboxamide] | 0.1 to 50 nM |
| CS(=O)(=O)NC(CCC1CC1)(c1ccncc1)c1ccc(F)c(NC(=O)c2cc(C(F)(F)F)nn2-c2ccc3ccnc(N)c3c2)c1 (single isomer, unassigned; (-)) [262f, (−)-1-(1-aminoisoquinolin-7-yl)-N-(5-(3-cyclopropyl-1-(methylsulfonamido)-1-(pyridin-4-yl)propyl)-2-fluorophenyl)-3-(trifluoromethyl)-1H-pyrazole-5-carboxamide] | 0.1 to 50 nM |
| CN1CCCN(C(CCC2CC2)c2ccc(F)c(NC(=O)c3cc(C(F)(F)F)nn3-c3cccc(CN)c3)c2)CC1 (centres unmarked) [251e, 1-(3-(aminomethyl)phenyl)-N-(5-(3-cyclopropyl-1-(4-methyl-1,4-diazepan-1-yl)propyl)-2-fluorophenyl)-3-(trifluoromethyl)-1H-pyrazole-5-carboxamide] | 50 to 100 nM |
| NCc1cccc(-n2nc(C(F)(F)F)cc2C(=O)Nc2cccc(C(OCC3CC3)c3ccc(O)cc3)c2)c1 (centres unmarked) [149b, 1-(3-(aminomethyl)phenyl)-N-(3-((cyclopropylmethoxy)(4-hydroxyphenyl)methyl)phenyl)-3-(trifluoromethyl)-1H-pyrazole-5-carboxamide] | 0.1 to 50 nM |
